Laboratory results reported in US11667602B2, “Compounds and their use” (AstraZeneca AB, priority 2020, dated 2023).
In brackets after ≈: the same amount, converted by molar mass.

Legend:
[1] = Human Plasma Protein Binding (Test B); format: in vitro ADME; conditions: fraction unbound (fu)
How it was run: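 Human plasma protein binding run per the published Wernevik et al. (2020) integrated DMPK panel protocol. Values are fraction unbound (fu, % free); repeat runs averaged arithmetically.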

[2] = Human Liver Microsomal Stability (Test C); format: in vitro ADME; conditions: human, liver microsomes
How it was run: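 Human liver microsome incubation per the Wernevik et al. integrated DMPK panel protocol. Intrinsic clearance reported as CLint in μl/min/mg protein, averaged arithmetically over repeat runs.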

[3] = Human Hepatocyte Stability (Test D); format: in vitro ADME; conditions: human, cryopreserved pooled human hepatocytes (LiverPool 10-Donor), geometric mean if run multiple times
Description: Human Hepatocyte Stability (Test D)
The metabolic stability of compounds in human hepatocytes was assessed using the following protocol:
1. Prepare 10 mM stock solutions of compound and control compounds in appropriate solvent (DMSO). Place incubation medium (L-15 Medium) in a 37° C. water bath, and allow warming for at least 15 minutes prior to use.
2. Add 80 μL of acetonitrile to each well of the 96-well deep well plate (“Quenching plate”).
3. In a new 96-well plate, dilute the 10 mM test compounds and the control compounds to 100 μM by combining 198 μL of acetonitrile and 2 μL of 10 mM stock solution.
4. Remove a vial of cryopreserved (less than −150° C.) human hepatocytes (LiverPool™ 10-Donor Human hepatocytes obtained from Bioreclamation IVT (Product No. S01205)) from storage, ensuring that vials remain at cryogenic temperatures until thawing process ensues. As quickly as possible, thaw the cells by placing the vial in a 37° C. water bath and gently shaking the vials. Vials should remain in water bath until all ice crystals have dissolved and are no longer visible. After thawing is complete, spray vial with 70% ethanol, transfer the vial to a bio-safety cabinet.
5. Open the vial and pour the contents into the 50 mL conical tube containing thawing medium. Place the 50 mL conical tube into a centrifuge and spin at 100 g for 10 minutes (room temperature).
6. Using Cellometer® Vision, count cells and determine the viable cell density. Cells with poor viability (<80% viability) are not acceptable for use.
7. Transfer 247.5 μL of hepatocytes into each well of a 96-well cell incubation plate. Place the plate on Eppendorf Thermomixer Comfort plate shaker to allow the hepatocytes to warm for 10 minutes.
8. Add 2.5 μL of 100 μM test compound or control compounds into an incubation well containing cells to initiate the reaction.
9. Incubate the plate at 37° C. and 900 rpm on an Eppendorf Thermomixer Comfort plate shaker.
10. Centrifuge the quenching plates for 20 minutes at 4,000 rpm. Transfer 30 μL of supernatant of each compound into a 96-well analysis plate. 4 compounds are pooled together into one cassette. Then dilute the pooled sample by adding of 180 μl of pure water. All incubations are performed in singlicate.
All calculations were carried out using Microsoft Excel. Peak areas were determined from extracted ion chromatograms. In vitro intrinsic clearance (in vitro Clint, in μL/min/10^6 cells) of parent compound was determined by regression analysis of the Ln percent parent disappearance vs. time curve. The in vitro intrinsic clearance (in vitro Clint, in μL/min/10^6 cells) reported in Table 36, and was determined from the slope value using the following equation: in vitro Clint=kV/N
V=incubation volume (0.25 mL);
N=number of hepatocytes per well (0.25×10^6 cells)
Where the assay was run multiple times for the same compound, the geometric mean is reported.

[4] = Rat Hepatocyte Stability (Test E); format: in vitro ADME; conditions: rat, hepatocytes, geometric mean if run multiple times
How it was run: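 Run per the published AstraZeneca-type rat hepatocyte stability protocol (Wernevik et al. panel). Values are mean intrinsic clearance, Clint in μl/min/10^6 cells; geometric mean used for repeated runs.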

Solubility (Test F) = format: physicochemical; conditions: arithmetic mean if run multiple times
Description: The assay was conducted according to the Solubility Assay described in pages 164-167 of Wernevik, J. et al., “A Fully Integrated Assay Panel for Early Drug Metabolism and Pharmacokinetics Profiling”, Assay and Drug Development Technologies, 2020, 18(4), 157-179. Data are reported in Table 36 as solubility ([…]. Where the assay was run multiple times for the same compound, the arithmetic mean is reported.

human RXFP1 = target: T1, human RXFP1 (Homo sapiens, UniProt Q9HBX9); test: RXFP1 Hu cAMP (Test A); format: cell-based; design: expressed in transfected cells; host or cells: Jump-In T-REx CHO-K1 cells (ThermoFisher), induced with 10 ng/ml doxycycline for 24 h; conditions: RXFP1 Hu cAMP
T1 sequence (Q9HBX9 1-757): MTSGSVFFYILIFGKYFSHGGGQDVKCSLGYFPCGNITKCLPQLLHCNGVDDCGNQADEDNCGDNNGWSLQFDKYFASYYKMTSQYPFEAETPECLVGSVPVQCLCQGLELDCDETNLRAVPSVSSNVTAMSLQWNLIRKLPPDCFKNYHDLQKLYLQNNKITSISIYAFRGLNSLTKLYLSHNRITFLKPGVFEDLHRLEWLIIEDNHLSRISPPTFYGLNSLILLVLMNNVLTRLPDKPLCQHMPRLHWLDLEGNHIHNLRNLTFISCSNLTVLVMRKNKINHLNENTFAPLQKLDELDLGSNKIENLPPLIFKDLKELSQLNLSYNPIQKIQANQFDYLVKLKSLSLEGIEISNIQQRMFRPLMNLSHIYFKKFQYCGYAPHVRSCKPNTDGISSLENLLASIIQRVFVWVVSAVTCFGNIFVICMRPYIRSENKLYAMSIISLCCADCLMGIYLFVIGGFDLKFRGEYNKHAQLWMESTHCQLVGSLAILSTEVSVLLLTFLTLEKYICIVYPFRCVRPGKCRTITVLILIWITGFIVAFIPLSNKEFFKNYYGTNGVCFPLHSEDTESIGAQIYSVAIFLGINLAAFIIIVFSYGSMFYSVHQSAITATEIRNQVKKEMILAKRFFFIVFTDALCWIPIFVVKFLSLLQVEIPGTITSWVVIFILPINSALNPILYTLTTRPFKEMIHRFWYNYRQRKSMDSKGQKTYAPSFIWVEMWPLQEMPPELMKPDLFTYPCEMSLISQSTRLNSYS
How it was run: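 Cells: CHO-K1 stably carrying human RXFP1, expressed after 24 h 10 ng/ml doxycycline; 0.5 mM IBMX final, HTRF detection after 2 h at room temperature.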

Row | Structure (SMILES) | Test B Human Plasma Protein Binding (% free) [1] [% free] | microsomal CLint [2] [µL/min/mg] | hepatocyte CLint at 1 µM [3] [µL/min/1e6 cells] | hepatocyte CLint [4] [µL/min/1e6 cells] | solubility (Solubility (Test F)) [µM] | Test A Sinf (human RXFP1) [%] | EC50 (human RXFP1; read-out: Test A EC50) [nM]
1 | COc1cc(C#N)c(O[C@H]2CC[C@@](C)(C(=O)O)CC2)cc1C(=O)N[C@@H]1[C@H]2CC[C@H](C2)[C@@H]1C(=O)NC12CC(F)(C1)C2 [Example 622] | 17 | < 5.1 | 1.7 | 11 | > 860 |  | 
2 | CC1(CNC(=O)[C@H]2[C@@H]3CC[C@@H](C3)[C@H]2NC(=O)c2cc(O[C@H]3CC[C@@](C)(C(=O)O)CC3)c(F)cc2F)CCC1 [Example 393, (1S,4s)-4-(2,4-Difluoro-5-(((1S,2R,3S,4R)-3-(((1-methylcyclobutyl)methyl)carbamoyl)bicyclo[2.2.1]heptan-2-yl)carbamoyl)phenoxy)-1-methylcyclohexane-1-carboxylic acid] | 1.4 | 37 | 6.7 | 12 | 53 (≈ 28.2 µg/mL) |  | 
3 | COc1c(Cl)cc(O[C@H]2CC[C@@](C)(C(=O)O)CC2)cc1C(=O)N[C@@H]1[C@H]2CC[C@H](C2)[C@@H]1C(=O)NCC1(C)CCC1 [Example 403] | 1.5 | 81 | 13 | 25 | 660 (≈ 370 µg/mL) |  | 
4 | COc1cc(F)c(O[C@H]2CC[C@@](CO)(C(=O)O)CC2)cc1C(=O)N[C@@H]1[C@H]2CC[C@H](C2)[C@@H]1C(=O)NCC1(C)CCC1 [Example 364] | 11 | < 5.1 | 6.2 | 19 | > 1000 |  | 
5 | COc1cc(F)c(-c2ccc(CCC(N)(CO)CO)c(F)c2)cc1C(=O)N[C@@H]1[C@H]2CC[C@H](C2)[C@@H]1C(=O)Nc1cccc(S(=O)(=O)C(F)(F)F)c1 [Example 266, (1R,2S,3R,4S)-3-(4′-(3-Amino-4-hydroxy-3-(hydroxymethyl)butyl)-3′,6-difluoro-4-methoxy-[1,1′-biphenyl]-3-carboxamido)-N-(3-((trifluoromethyl)sulfonyl)phenyl)bicyclo[2.2.1]heptane-2-carboxamide] | <0.34 | 68 | 9.4 | 8.8 |  | 103 | 110

The next lines start with the values.

Row | Test B Human Plasma Protein Binding (% free) [1] [% free] | microsomal CLint [2] [µL/min/mg] | hepatocyte CLint at 1 µM [3] [µL/min/1e6 cells] | hepatocyte CLint [4] [µL/min/1e6 cells] | solubility (Solubility (Test F)) [µM] | Test A Sinf (human RXFP1) [%] | EC50 (human RXFP1; read-out: Test A EC50) [nM] | Structure (SMILES)
6 | 6.9 | 33 | 5.8 | 7.2 | 22 (≈ 12 µg/mL) |  |  | COc1cc(F)c(O[C@H]2CC[C@@](C)(C(=O)O)CC2)cc1C(=O)N[C@@H]1[C@H]2CC[C@H](C2)[C@@H]1C(=O)N[C@H](C)C(C)(C)C [Example 36, (1S,4s)-4-(5-(((1S,2R,3S,4R)-3-(((R)-3,3-Dimethylbutan-2-yl)carbamoyl)bicyclo[2.2.1]heptan-2-yl)carbamoyl)-2-fluoro-4-methoxyphenoxy)-1-methylcyclohexane-1-carboxylic acid]
7 | 4.8 | 5.7 | < 1 | 19 | 880 (≈ 456 µg/mL) |  |  | COc1cc(F)c(O[C@H]2CC[C@@](C)(C(=O)O)CC2)cc1C(=O)N[C@@H]1[C@H]2CC[C@H](C2)[C@@H]1C(=O)NCC(C)C [Example 34, (1S,4s)-4-(2-Fluoro-5-(((1S,2R,3S,4R)-3-(isobutylcarbamoyl)bicyclo[2.2.1]heptan-2-yl)carbamoyl)-4-methoxyphenoxy)-1-methylcyclohexane-1-carboxylic acid]
8 | 3.9 | 23 | 5.1 | 16 | 1000 (≈ 577 µg/mL) |  |  | COc1cc(C(F)F)c(O[C@H]2CC[C@@](C)(C(=O)O)CC2)cc1C(=O)N[C@@H]1[C@H]2CC[C@H](C2)[C@@H]1C(=O)NCC1(C)CCC1 [Example 373]
9 | 5.6 | 13 | 4.2 | 9 | 38 (≈ 22.3 µg/mL) |  |  | COc1cc(F)c(O[C@H]2CC[C@@](C)(C(=O)O)CC2)cc1C(=O)N[C@@H]1[C@H]2CC[C@H](C2)[C@@H]1C(=O)NCC(C)(C)C(F)(F)F [Example 38, (1S,4s)-4-(2-Fluoro-4-methoxy-5-(((1S,2R,3S,4R)-3-((3,3,3-trifluoro-2,2-dimethylpropyl)carbamoyl)bicyclo[2.2.1]heptan-2-yl)carbamoyl)phenoxy)-1-methylcyclohexane-1-carboxylic acid]
10 | 0.48 | 20 | 49 | 21 | 280 (≈ 157 µg/mL) |  |  | COc1cc(Cl)c(O[C@H]2CC[C@@](C)(C(=O)O)CC2)cc1C(=O)N[C@@H]1[C@@H]2CC[C@@H](C2)[C@@H]1C(=O)NCC1(C)CCC1 [Example 410]
11 | 3.5 | 34 | 26 | 10 | 560 (≈ 325 µg/mL) |  |  | CC1(CNC(=O)[C@H]2[C@@H]3CC[C@@H](C3)[C@H]2NC(=O)c2cc(O[C@H]3CC[C@@](C)(C(=O)O)CC3)c(F)cc2OC(F)F)CCC1 [Example 207, (1S,4s)-4-(4-(Difluoromethoxy)-2-fluoro-5-(((1S,2R,3S,4R)-3-(((1-methylcyclobutyl)methyl)carbamoyl)bicyclo[2.2.1]heptan-2-yl)carbamoyl)phenoxy)-1-methylcyclohexane-1-carboxylic acid]
